Values belong to the compound of their own block, whether it stands above or below them.
How the values were obtained:
[1] = target: Tubulin; test: Inhibition of tubulin polymerization (unknown origin); assay type: protein-complex assay, Homo sapiens
[2] = target: T1, Histone deacetylase 1 (Homo sapiens, UniProt Q13547); test: Inhibition of HDAC1 (unknown origin)
[3] = target: Histone deacetylase 2 (Homo sapiens, UniProt Q92769); test: Inhibition of HDAC2 (unknown origin)
[4] = tested on: MCF7; test: Antiproliferative activity against human MCF7 cells assessed as reduction in cell viability incubated for 48 hrs by MTT assay; assay type: functional, cell-based; settings: MCF7, 48 h
[5] = tested on: HCC1937; test: Antiproliferative activity against human HCC1937 cells assessed as reduction in cell viability incubated for 48 hrs by MTT assay; assay type: functional, cell-based; settings: HCC1937, 48 h
[6] = tested on: HCT-116; test: Antiproliferative activity against human HCT-116 cells assessed as reduction in cell viability incubated for 48 hrs by MTT assay; assay type: functional, cell-based; settings: HCT-116, 48 h
[7] = tested on: K562; test: Antiproliferative activity against human K562 cells assessed as reduction in cell viability incubated for 48 hrs by MTT assay; assay type: functional, cell-based; settings: K562, 48 h
[8] = target: T2, Poly [ADP-ribose] polymerase 1 (Homo sapiens, UniProt P09874); test: Inhibition of PARP-1 (unknown origin)
[9] = target: Histone deacetylase 3 (Homo sapiens, UniProt O15379); test: Inhibition of HDAC3 (unknown origin)
[10] = target: Histone deacetylase 4 (Homo sapiens, UniProt P56524); test: Inhibition of HDAC4 (unknown origin)
[11] = target: T3, Protein deacetylase HDAC6 (Homo sapiens, UniProt Q9UBN7); test: Inhibition of HDAC6 (unknown origin)
T3 sequence (Q9UBN7 whole entry): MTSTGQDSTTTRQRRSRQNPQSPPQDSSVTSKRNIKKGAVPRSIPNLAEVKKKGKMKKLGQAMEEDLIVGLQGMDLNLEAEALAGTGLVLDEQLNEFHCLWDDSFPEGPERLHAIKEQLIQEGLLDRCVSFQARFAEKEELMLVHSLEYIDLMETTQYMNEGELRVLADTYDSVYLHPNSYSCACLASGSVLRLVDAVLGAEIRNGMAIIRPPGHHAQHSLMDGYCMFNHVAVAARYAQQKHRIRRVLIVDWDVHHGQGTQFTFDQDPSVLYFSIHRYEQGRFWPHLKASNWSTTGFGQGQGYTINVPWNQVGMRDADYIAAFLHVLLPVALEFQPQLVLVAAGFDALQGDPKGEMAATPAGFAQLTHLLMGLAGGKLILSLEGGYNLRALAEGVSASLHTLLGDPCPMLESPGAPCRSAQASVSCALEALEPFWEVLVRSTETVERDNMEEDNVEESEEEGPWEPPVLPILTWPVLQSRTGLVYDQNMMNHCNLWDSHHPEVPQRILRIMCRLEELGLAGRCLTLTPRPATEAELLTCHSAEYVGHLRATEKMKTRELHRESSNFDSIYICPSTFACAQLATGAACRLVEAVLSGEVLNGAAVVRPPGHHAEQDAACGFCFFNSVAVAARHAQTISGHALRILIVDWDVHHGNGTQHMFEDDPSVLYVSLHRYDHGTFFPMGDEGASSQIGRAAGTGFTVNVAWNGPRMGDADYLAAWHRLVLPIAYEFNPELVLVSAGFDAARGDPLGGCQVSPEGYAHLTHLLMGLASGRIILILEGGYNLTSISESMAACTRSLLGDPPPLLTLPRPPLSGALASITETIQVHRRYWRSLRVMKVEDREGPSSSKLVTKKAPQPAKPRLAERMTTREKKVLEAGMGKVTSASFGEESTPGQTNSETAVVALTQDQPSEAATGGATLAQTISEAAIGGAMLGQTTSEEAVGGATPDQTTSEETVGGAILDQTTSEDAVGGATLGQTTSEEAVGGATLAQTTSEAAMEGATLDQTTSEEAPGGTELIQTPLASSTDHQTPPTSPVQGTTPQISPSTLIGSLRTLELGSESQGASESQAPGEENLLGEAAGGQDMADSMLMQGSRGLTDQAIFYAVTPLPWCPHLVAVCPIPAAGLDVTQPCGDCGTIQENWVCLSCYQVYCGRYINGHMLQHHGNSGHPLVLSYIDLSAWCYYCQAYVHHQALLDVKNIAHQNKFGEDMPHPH

[12] = target: Histone deacetylase 5 (Homo sapiens, UniProt Q9UQL6); test: Inhibition of HDAC5 (unknown origin)
[13] = tested on: HepG2; test: Antiproliferative activity against human HepG2 cells assessed as reduction in cell viability incubated for 48 hrs by MTT assay; settings: HepG2, 48 h
[14] = tested on: Bel-7402; test: Antitumor activity against human Bel-7402 cells xenografted in nude mouse model assessed as tumor growth inhibition at 50 mg/kg, IG administered for 21 days relative to control; settings: Bel-7402, po, 504 h, read-out: TGI
[15] = tested on: SNU-475; test: Antiproliferative activity against human SNU-475 cells assessed as reduction in cell viability incubated for 48 hrs by MTT assay; settings: SNU-475, 48 h
[16] = Metabolic stability in human liver microsomes assessed as intrinsic clearance measured for 30 mins by LC-MS/MS analysis; assay type: ADME, Microsome; settings: read-out: CLH
[17] = Metabolic stability in human liver microsomes assessed as half life for 30 mins by LC-MS/MS analysis; assay type: ADME, Microsome
[18] = target: T2, Poly [ADP-ribose] polymerase 1; test: Inhibition of PARP1 (unknown origin)
[19] = tested on: A549; test: Antiproliferative activity against human A549 cells assessed as reduction in cell viability incubated for 3 days by Cell-titer glo reagent based assay; assay type: functional; settings: A549, 72 h
[20] = tested on: HCT-116; test: Antiproliferative activity against human HCT-116 cells assessed as reduction in cell viability incubated for 3 days by Cell-titer glo reagent based assay; assay type: functional; settings: HCT-116, 72 h
[21] = Oral bioavailability in BALB/c mouse at 50 mg/kg by LC-MS/MS analysis; assay type: ADME, organism-based; settings: in vivo
[22] = Half life in BALB/c mouse at 50 mg/kg, po by LC-MS/MS analysis; assay type: ADME, organism-based; settings: in vivo
[23] = target: Histone deacetylase 8 (Homo sapiens, UniProt Q9BY41); test: Inhibition of HDAC8 (unknown origin)
[24] = tested on: MGC-803; test: Antiproliferative activity against human MGC-803 cells by MTT assay; assay type: functional, cell-based
[25] = target: DNA topoisomerase 1 (Homo sapiens, UniProt P11387); test: Inhibition of Topoisomerase 1 (unknown origin)
[26] = tested on: HepG2; test: Antiproliferative activity against human HepG2 cells; assay type: functional, cell-based
[27] = tested on: HT-29; test: Antiproliferative activity against human HT-29 cells; assay type: functional, cell-based
[28] = tested on: A549; test: Antiproliferative activity against human A549 cells; assay type: functional, cell-based
[29] = tested on: EA.hy 926; test: Antiproliferative activity against human EA.hy 926 cells assessed as reduction in cell growth incubated for 72 hrs by MTT assay; assay type: functional, cell-based; settings: EA.hy 926, 72 h
[30] = tested on: NCI-H460; test: Antiproliferative activity against human NCI-H460 cells assessed as reduction in cell growth incubated for 72 hrs by SRB assay; assay type: functional, cell-based; settings: NCI-H460, 72 h
[31] = tested on: CAPAN-1; test: Antiproliferative activity against human CAPAN-1 cells assessed as reduction in cell growth incubated for 72 hrs by SRB assay; assay type: functional, cell-based; settings: CAPAN-1, 72 h
[32] = tested on: HepG2; test: Antiproliferative activity against human HepG2 cells assessed as reduction in cell growth incubated for 72 hrs by SRB assay; assay type: functional, cell-based; settings: HepG2, 72 h
[33] = tested on: A2780; test: Antiproliferative activity against human A2780 cells assessed as reduction in cell growth incubated for 72 hrs by SRB assay; assay type: functional, cell-based; settings: A2780, 72 h
[34] = tested on: HT-29; test: Antiproliferative activity against human HT-29 cells assessed as reduction in cell growth incubated for 72 hrs by SRB assay; assay type: functional, cell-based; settings: HT-29, 72 h
[35] = Inhibition of human recombinant HDAC2 using fluorogenic peptide p53 (379 to 382 residues) RHKK(Ac) as substrate by fluorescence based analysis
[36] = Antiproliferative activity against human Doxorubicin-resistant A2780-DX cells assessed as reduction in cell growth incubated for 72 hrs by SRB assay; assay type: functional, cell-based
[37] = target: T1, Histone deacetylase 1; test: Inhibition of human recombinant HDAC1 using fluorogenic peptide p53 (379 to 382 residues) RHKK(Ac) as substrate by fluorescence based analysis
[38] = tested on: A-431; test: Antiproliferative activity against human A-431 cells assessed as reduction in cell growth incubated for 72 hrs by SRB assay; assay type: functional, cell-based; settings: A-431, 72 h
[39] = target: Polyamine deacetylase HDAC10 (Homo sapiens, UniProt Q969S8); test: Inhibition of human recombinant HDAC10 using fluorogenic peptide p53 (379 to 382 residues) RHKK(Ac) as substrate by fluorescence based analysis
[40] = tested on: HeLa; test: Antiproliferative activity against human Hela cells assessed as reduction in cell growth incubated for 72 hrs by SRB assay; assay type: functional, cell-based
[41] = Cytotoxicity against human MM472 cells assessed as reduction in cell viability incubated for 72 hrs by SRB assay; assay type: functional, cell-based; settings: MM472, 72 h
[42] = target: T3, Protein deacetylase HDAC6; test: Inhibition of human recombinant HDAC6 using fluorogenic peptide p53 (379 to 382 residues) RHKK(Ac) as substrate by fluorescence based analysis
[43] = tested on: DU-145; test: Antiproliferative activity against human DU-145 cells assessed as reduction in cell growth incubated for 72 hrs by SRB assay; assay type: functional, cell-based; settings: DU-145, 72 h

Sequence of Histone deacetylase 2 (Q92769 whole entry): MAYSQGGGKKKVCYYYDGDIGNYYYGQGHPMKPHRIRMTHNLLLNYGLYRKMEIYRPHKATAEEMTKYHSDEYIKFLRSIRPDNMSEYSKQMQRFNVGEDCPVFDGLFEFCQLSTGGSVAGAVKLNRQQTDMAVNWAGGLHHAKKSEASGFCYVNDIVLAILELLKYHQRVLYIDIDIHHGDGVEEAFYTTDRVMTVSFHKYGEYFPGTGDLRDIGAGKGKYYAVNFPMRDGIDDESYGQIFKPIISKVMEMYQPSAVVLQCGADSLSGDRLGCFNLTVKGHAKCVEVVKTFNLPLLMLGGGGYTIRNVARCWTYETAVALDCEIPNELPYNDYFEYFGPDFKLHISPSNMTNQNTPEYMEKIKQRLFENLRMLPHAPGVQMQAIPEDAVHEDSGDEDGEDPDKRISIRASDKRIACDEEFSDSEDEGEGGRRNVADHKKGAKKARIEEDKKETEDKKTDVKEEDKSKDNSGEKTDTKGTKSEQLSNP
T1 sequence (Q13547 whole entry): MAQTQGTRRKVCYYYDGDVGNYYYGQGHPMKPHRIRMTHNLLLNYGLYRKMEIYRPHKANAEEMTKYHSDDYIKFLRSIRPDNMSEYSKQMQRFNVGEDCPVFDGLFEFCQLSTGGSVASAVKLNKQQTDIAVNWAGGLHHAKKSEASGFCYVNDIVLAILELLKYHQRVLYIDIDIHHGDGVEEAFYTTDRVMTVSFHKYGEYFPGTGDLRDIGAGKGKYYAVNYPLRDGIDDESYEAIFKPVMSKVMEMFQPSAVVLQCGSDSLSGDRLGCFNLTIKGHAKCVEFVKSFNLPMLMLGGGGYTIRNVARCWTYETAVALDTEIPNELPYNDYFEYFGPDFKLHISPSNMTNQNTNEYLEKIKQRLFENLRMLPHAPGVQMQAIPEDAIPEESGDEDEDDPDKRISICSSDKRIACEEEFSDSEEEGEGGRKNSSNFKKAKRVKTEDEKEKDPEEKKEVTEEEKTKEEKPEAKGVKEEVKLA
Sequence of Histone deacetylase 3 (O15379 whole entry): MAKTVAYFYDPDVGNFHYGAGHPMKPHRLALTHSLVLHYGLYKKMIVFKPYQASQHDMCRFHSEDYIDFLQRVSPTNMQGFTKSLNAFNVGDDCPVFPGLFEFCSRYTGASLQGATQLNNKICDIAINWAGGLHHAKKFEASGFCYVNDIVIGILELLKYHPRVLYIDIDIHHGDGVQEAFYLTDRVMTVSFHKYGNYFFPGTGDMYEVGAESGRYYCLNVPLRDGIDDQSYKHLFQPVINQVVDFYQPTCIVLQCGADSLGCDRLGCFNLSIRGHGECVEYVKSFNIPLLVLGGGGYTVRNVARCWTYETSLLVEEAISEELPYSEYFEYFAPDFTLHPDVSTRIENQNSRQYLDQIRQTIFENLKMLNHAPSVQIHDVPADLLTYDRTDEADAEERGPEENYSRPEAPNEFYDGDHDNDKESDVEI
T2 sequence (P09874 whole entry): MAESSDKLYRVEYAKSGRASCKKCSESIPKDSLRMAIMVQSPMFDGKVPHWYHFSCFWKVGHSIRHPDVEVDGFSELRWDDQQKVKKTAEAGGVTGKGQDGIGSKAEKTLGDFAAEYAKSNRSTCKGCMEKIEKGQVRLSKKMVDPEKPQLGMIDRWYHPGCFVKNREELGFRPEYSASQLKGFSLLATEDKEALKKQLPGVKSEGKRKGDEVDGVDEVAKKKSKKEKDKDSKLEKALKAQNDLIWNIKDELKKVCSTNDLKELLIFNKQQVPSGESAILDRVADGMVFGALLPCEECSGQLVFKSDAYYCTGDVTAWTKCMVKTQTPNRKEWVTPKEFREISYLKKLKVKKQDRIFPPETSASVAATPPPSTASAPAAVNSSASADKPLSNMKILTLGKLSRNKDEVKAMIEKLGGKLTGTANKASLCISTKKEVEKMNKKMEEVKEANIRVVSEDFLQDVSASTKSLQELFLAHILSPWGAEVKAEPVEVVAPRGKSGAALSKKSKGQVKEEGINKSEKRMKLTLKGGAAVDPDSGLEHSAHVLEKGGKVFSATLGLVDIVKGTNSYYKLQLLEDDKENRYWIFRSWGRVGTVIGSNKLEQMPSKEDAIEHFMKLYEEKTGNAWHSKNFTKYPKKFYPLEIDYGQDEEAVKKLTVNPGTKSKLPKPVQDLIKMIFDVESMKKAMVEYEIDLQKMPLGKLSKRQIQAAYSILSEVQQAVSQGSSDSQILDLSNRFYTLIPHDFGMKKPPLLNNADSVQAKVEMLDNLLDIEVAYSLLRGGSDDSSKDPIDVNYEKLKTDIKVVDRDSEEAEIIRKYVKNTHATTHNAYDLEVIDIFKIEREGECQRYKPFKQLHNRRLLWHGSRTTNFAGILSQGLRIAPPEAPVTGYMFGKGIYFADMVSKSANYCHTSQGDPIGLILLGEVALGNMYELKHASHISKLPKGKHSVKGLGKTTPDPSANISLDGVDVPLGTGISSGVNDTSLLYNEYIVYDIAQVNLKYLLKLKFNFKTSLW
Sequence of Histone deacetylase 4 (P56524 whole entry): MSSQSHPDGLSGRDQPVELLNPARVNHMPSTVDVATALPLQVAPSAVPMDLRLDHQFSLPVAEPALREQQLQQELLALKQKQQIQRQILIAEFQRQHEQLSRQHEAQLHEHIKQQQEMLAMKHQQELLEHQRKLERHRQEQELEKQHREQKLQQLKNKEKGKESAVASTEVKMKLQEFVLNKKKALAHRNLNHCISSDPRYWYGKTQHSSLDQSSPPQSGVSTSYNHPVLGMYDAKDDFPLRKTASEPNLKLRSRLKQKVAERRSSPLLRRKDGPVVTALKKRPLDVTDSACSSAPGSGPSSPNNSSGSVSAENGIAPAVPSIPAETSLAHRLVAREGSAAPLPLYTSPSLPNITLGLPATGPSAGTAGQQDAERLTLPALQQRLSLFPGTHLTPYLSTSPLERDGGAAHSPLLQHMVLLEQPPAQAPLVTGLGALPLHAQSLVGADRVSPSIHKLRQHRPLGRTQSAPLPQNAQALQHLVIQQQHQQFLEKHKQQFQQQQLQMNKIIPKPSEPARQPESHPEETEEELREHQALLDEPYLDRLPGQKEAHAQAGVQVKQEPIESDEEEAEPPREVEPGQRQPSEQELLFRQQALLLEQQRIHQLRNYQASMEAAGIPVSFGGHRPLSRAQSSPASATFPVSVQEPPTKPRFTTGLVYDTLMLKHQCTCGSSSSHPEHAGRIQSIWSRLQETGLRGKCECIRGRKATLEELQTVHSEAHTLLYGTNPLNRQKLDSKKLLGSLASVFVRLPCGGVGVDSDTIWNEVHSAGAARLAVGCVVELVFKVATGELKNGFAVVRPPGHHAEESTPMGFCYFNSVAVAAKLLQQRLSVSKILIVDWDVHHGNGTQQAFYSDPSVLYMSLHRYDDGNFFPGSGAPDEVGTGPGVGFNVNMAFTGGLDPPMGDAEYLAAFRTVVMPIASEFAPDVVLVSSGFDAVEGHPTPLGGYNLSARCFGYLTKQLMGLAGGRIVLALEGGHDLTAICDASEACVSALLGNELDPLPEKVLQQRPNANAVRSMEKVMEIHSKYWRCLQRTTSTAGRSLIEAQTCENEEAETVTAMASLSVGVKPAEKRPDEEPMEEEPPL
Sequence of Histone deacetylase 5 (Q9UQL6 whole entry): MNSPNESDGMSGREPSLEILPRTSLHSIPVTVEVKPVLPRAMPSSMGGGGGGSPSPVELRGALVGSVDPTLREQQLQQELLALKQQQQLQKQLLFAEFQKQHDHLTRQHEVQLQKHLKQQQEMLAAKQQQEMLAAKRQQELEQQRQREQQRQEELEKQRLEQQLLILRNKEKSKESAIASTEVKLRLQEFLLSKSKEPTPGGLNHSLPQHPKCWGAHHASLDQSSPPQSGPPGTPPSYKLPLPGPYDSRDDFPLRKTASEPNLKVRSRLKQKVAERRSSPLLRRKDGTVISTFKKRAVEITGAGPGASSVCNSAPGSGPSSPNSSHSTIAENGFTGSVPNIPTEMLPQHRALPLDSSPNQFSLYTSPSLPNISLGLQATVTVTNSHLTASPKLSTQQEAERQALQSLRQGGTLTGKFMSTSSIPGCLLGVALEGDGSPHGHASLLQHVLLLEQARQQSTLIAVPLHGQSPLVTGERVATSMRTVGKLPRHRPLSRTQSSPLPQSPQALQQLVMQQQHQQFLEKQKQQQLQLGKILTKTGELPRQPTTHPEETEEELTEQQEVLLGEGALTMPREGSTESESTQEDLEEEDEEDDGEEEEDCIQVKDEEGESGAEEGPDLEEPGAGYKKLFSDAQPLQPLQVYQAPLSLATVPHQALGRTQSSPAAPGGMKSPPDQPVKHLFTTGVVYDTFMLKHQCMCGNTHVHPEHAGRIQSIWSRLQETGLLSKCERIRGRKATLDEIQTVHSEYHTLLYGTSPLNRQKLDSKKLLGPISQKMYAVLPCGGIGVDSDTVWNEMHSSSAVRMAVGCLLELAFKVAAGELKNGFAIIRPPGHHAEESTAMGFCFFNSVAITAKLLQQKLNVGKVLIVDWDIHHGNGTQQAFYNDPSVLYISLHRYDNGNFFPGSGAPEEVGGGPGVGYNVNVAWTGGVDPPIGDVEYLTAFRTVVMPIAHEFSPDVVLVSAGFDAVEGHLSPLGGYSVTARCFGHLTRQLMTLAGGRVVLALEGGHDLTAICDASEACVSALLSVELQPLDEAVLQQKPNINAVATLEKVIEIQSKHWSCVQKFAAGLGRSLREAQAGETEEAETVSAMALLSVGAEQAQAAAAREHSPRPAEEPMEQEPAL
Sequence of Histone deacetylase 8 (Q9BY41 whole entry): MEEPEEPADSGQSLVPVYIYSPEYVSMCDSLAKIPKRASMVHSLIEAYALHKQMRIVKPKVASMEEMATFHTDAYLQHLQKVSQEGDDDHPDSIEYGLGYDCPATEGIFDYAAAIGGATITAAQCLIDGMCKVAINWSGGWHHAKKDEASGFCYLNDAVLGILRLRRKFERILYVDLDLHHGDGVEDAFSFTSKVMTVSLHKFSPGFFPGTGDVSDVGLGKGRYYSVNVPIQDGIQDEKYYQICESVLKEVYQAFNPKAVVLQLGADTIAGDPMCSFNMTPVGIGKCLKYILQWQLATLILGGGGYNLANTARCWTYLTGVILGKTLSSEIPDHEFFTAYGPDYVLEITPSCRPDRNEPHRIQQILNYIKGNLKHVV

SMILES: COc1cc(/C=C/C(=O)c2ccc(NC(=O)c3ccccc3CN3C(=O)c4ccccc4C3=O)cc2)cc(OC)c1OC
IC50 [2]: 220 nM
IC50 [3]: 430 nM

SMILES: Cn1c(CCCCCCC(=O)NO)nc2ccc(N(CCCl)CCCl)cc21
IC50 [9]: 25 nM
IC50 [2]: 17 nM
IC50 [10]: 6.4 nM
IC50 [11]: 72 nM
IC50 [12]: 107 nM
IC50 [3]: 10 nM

SMILES: CCOC(=O)Nc1nc2ccc(-c3cc(Cc4n[nH]c(=O)c5ccccc45)ccc3F)cc2[nH]1
IC50 [18]: 7 nM
IC50 [19]: 141 nM
IC50 [1]: 990 nM
IC50 [20]: 352 nM
bioavailability [21]: 31%
half-life [22]: 3.28 h

SMILES: COc1ccc2c3ccnc(C)c3n(CC3CCN(c4ncc(C(=O)NO)cn4)CC3)c2c1
IC50 [26]: 2880 nM
IC50 [27]: 1880 nM
IC50 [28]: 5960 nM

SMILES: COc1ccc(-c2ocnc2-c2cc(Br)c(OC)c(OC)c2)cc1OCCCCCC(=O)NO
IC50 [29]: 410 nM

SMILES: CC[C@]1(O)C(=O)OCc2c1cc1n(c2=O)Cc2c-1nc1ccc(O)cc1c2/C=N/OCCCCCC(=O)NO
IC50 [30]: 30 nM
IC50 [31]: 30 nM
IC50 [32]: 30 nM
IC50 [33]: 30 nM
IC50 [34]: 30 nM
IC50 [35]: 9330 nM
IC50 [36]: 30 nM
IC50 [37]: 5260 nM
IC50 [38]: 30 nM
IC50 [39]: 2240 nM
IC50 [40]: 30 nM
IC50 [41]: 48 nM
IC50 [42]: 1560 nM
IC50 [43]: 30 nM

Now from value to compound, other results behind:

IC50 [1]: 1270 nM
SMILES: Cc1ccc(Cn2cc(CSC(=S)N3CCN(C(=O)OC(C)(C)C)CC3)nn2)cc1

IC50 [4]: 13800 nM
IC50 [5]: 7960 nM
IC50 [6]: 12900 nM
IC50 [7]: 3940 nM
IC50 [8]: 11800 nM
SMILES: O=C(c1cc(Cc2n[nH]c(=O)c3ccccc23)ccc1F)N1CCN(c2c3ccccc3nc3ccccc23)CC1

IC50 [13]: 570 nM
IC50 [15]: 730 nM
SMILES: COc1ccc(S(=O)(=O)N(CCSC(=S)N2CCN(C)CC2)c2cc(OC)c(OC)c(OC)c2)cc1
inhibition in vivo at 50 mg/kg [14]: 43%

CLint scaled [16]: 22.8 mL/min/kg
IC50 [1]: 2400 nM
half-life [17]: 0.913 h
SMILES: COc1ccc(-c2cccc(-c3cc(OC)c(OC)c(OC)c3)n2)cc1C(=O)NO

IC50 [9]: 1800 nM
IC50 [2]: 1800 nM
IC50 [23]: 1400 nM
IC50 [11]: 2000 nM
IC50 [3]: 2100 nM
SMILES: O=C(Cc1ccc(/C=C/C(=O)c2ncc[nH]2)cc1)Nc1ccc(F)cc1

IC50 [9]: 5270 nM
IC50 [11]: 77400 nM
IC50 [3]: 3010 nM
IC50 [24]: 39 nM
SMILES: COc1ccc(CN(C(=O)Cc2ccc(C(=O)Nc3ccccc3N)cc2)c2cc(OC)c(OC)c(OC)c2)cc1O

IC50 [25]: 770 nM
SMILES: CCc1c2c(nc3ccc(O)cc13)-c1cc3c(c(=O)n1C2)COC(=O)[C@]3(O)CC [7-ETHYL-10-HYDROXYCAMPTOTHECIN]

Source: ChEMBL document CHEMBL6109052, “Overview of the epigenetic/cytotoxic dual-target inhibitors for cancer therapy” (Eur J Med Chem, 2025)
